What was measured:
[1] = Microscopic observation of gel compositions for methylparaben crystalline particles; type: physicochemical
Description: Microscopic observations were performed on additional representative batches of brimonidine topical gel compositions and placebo gel compositions containing 1.25% (w/w) carbomer, POBM and other ingredients. The observations have been done on one tube of each batch, with the microscope Axiolab DRBKT Zeiss no. 023733.01 with a camera ICC Zeiss or the microscope Olympus BX60. The microscopic observations were done at 5° C. and room temperature.
Numerous formulations with different ingredients and varying concentrations of the ingredients were made and tested for the presence of the paraben crystals by microscopic observations. The microbiological quality of the formulations was also analyzed by using acceptance-test criteria in preservative-efficacy testing (PET) in the United States Pharmacopeia (USP) and the European Pharmacopoeia (EP).

[2] = Methylparaben concentration in supernatant after centrifugation of a batch with crystals; type: physicochemical
Description: Centrifugation was performed on the batch to collect crystals at the bottom of the centrifuge tube, thus removing them from the supernatant.

recrystallization in formulation ([1]; 0.3% (w/w) POBM, addition of 0.1% of EDTA) | supernatant methylparaben as share of the 0.3% (w/w) in the original formulation ([2]; batch originally containing 0.3% (w/w) methylparaben) | methylparaben concentration in the supernatant ([2]; batch originally containing 0.3% (w/w) methylparaben with crystals, after centrifugation) | SMILES | crystalline particles in formulation ([1]; methylparaben replaced with Na POBM at 0.3% (w/w))
immediate recrystallization | about 66% | about 0.2 % (w/w) | COC(=O)c1ccc(O)cc1 [methylparaben] | 
 |  |  | COC(=O)c1ccc([O-])cc1.[Na+] [Na POBM] | crystalline particles of Na POBM were still observed

Reference: patent US20120101104A1, “TOPICAL GEL COMPOSITIONS AND METHODS OF USE” (GALDERMA S.A., priority 2010, published 2012)
